Usually EC50 stands for the concentration giving half of the maximal effect.

This passage reports EC50 results from patent publication US12247018B2, “Aryl-n-aryl derivatives for treating a RNA virus infection” (ABIVAX, priority 2018, dated 2025).

The test concerns RSV A2. Put plainly: RSV inhibition (cytopathic effect) in HEp-2 cells using Viral ToxGlo assay. It counts as cell-based. The following applies: human respiratory syncytial virus; RSV A2, HEp-2 cells, MOI 0.5, 72 h p.i. Here is the method: Protocol for Screening Antiviral Compounds for RSV Inhibition and Cytotoxicity Using Viral ToxGlo Assay
HEp-2 cells were maintained in Eagle's minimum essential medium (EMEM) with Earle's BSS adjusted to contain 2 mM L-glutamine, 10% fetal bovine serum, 100 U/ml penicillin and 100 μg/ml streptomycin. For the purposes of the screening assay they were grown to 90% confluency, trypsinized and recovered. The trypsin was neutralised with cell culture media and cells were centrifuged at 150×g for 5 minutes before discarding the supernatant and resuspending cell pellet in assay media (EMEM with Earle's BSS adjusted to contain 2 mM L-glutamine, 2% fetal bovine serum and 100 U/ml penicillin and 100 μg/ml streptomycin). The cells were seeded into white clear-bottomed cell culture plates at a density of 1.5×10^4 cells/well in 50 μl and 4×10^3 cells/well in 25 μl for 96 well plates and 384 well plates respectively. For the media/background control column assay media only was added. Cell plates were placed in a humid chamber and incubated overnight at 37° C./5% CO2. After overnight incubation cells were checked for confluency and healthy appearance.
Test articles were made up at 10× test concentration in a maximum DMSO concentration of 10% (final assay concentration maximal 1% DMSO) and added to the cell plates in volumes of 10 μl for 96 well plates and 5 μl for 384 well plates. For cell control and virus control wells the test article solvent only was added. Virus or assay media for cytotoxicity test wells and media/cell control wells was added immediately after test articles at an MOI of 0.5, 40 or 20 μl for 96 and 384 well plates respectively. Virus suspension was prepared by thawing RSV A2 frozen stocks and diluting to the required concentration of plaque forming units in assay media on ice.
Cell plates were further incubated inside a humid chamber for 72 h p.i at 37° C./5% CO2. After the incubation period cells were observed under the microscope to check for characteristic cytopathic effect in virus control wells and healthy cells in the cell control wells. After plates were adjusted to room temperature 20/40 μl Viral ToxGlo (Promega) was added to each well of the 384/96 well cell plates. Plates were incubated at room temperature, protected from light on a plate rocker for 20 minutes before measuring the luminescence on a spectrophotometer (Biotek Synergy HTX).
Regarding `O=C(N=C1NCCCN1)c1ccc(Nc2cccc(C(O)CCCC3CCCCC3)c2)c(C2CC2)c1` (centres unmarked) [compound 103, 4-{[3-(4-cyclohexyl-1-hydroxybutyl)phenyl]amino}-3-cyclopropyl-N-(1,3-diazinan-2-ylidene)benzamide], the 50% effective concentration (EC50) turned out to be 44 nM.

Consider `CC(C)CCCNC(=O)c1cccc(Nc2ccc(C(=O)N=C3NCCCN3)cc2C2CC2)c1` [compound 105, 3-cyclopropyl-N-(1,3-diazinan-2-ylidene)-4-({3-[(4-methylpentyl)carbamoyl]phenyl}amino)benzamide], for which the EC50 was found to be 62 nM.

For `O=C(N=C1NCCCN1)c1ccc(Nc2cccc(OCCC3CCCCC3)c2)c(C2CC2)c1` [compound 130, 4-{[3-(2-cyclohexylethoxy)phenyl]amino}-3-cyclopropyl-N-(1,3-diazinan-2-ylidene)benzamide], the EC50 was determined as 234 nM.

For `O=C(N=C1NCCCN1)c1ccc(Nc2cccc(OC3COC3)c2)c(C2CC2)c1` [compound 144, 3-cyclopropyl-N-(1,3-diazinan-2-ylidene)-4-{[3-(oxetan-3-yloxy)phenyl]amino}benzamide], the EC50 was found to be 413 nM.

As to `O=C1CCN/C(=N\C(=O)c2ccc(Nc3cccc(OCCC4COCCO4)c3)c(C3CC3)c2)N1` (centres unmarked) [compound 150, 3-cyclopropyl-4-({3-[2-(1,4-dioxan-2-yl)ethoxy]phenyl}amino)-N-[(2E)-4-oxo-1,3-diazinan-2-ylidene]benzamide], the EC50 was 512 nM.

Regarding `Cc1c(Nc2ccc(C(=O)N=C3NCCCN3)cc2C2CC2)cccc1C(=O)NCCC(C)C` [compound 96, 3-cyclopropyl-N-(1,3-diazinan-2-ylidene)-4-({2-methyl-3-[(3-methylbutyl)carbamoyl]phenyl}amino)benzamide], the EC50 was found to be 20 nM.

In the case of `O=C(N=C1NCCCN1)c1ccc(Nc2ccccc2S(=O)(=O)CCCC2CCCCC2)c(C2CC2)c1` [compound 106, 4-{[2-(3-cyclohexylpropanesulfonyl)phenyl]amino}-3-cyclopropyl-N-(1,3-diazinan-2-ylidene)benzamide], the EC50 was determined as 67 nM.

As to `O=C(N=C1NCCCN1)c1ccc(Nc2ccccc2C(=O)NCCC(F)(F)F)c(C2CC2)c1` [compound 159, 3-cyclopropyl-N-(1,3-diazinan-2-ylidene)-4-({2-[(3,3,3-trifluoropropyl)carbamoyl]phenyl}amino)benzamide], the EC50 amounted to 1100 nM.

For `Cc1c(Nc2ccc(C(=O)N=C3NCCCN3)cc2C2CC2)cccc1-c1ncc(Cl)[nH]1` [compound 141, 4-{[3-(5-chloro-1H-imidazol-2-yl)-2-methylphenyl]amino}-3-cyclopropyl-N-(1,3-diazinan-2-ylidene)benzamide], the EC50 came to 370 nM.

With `O=C(N=C1NCCCN1)c1ccc(Nc2cccc(OCCCC3CCCCC3)c2)c(C2CC2)c1` [compound 115, 4-{[3-(3-cyclohexylpropoxy)phenyl]amino}-3-cyclopropyl-N-(1,3-diazinan-2-ylidene)benzamide], the EC50 amounted to 110 nM.

For the molecule `CC(C)CCNC(=O)c1cccc(Nc2ccc(C(=O)N=C3NCCCN3)cc2C2CC2)c1` [compound 113, 3-cyclopropyl-N-(1,3-diazinan-2-ylidene)-4-({3-[(3-methylbutyl)carbamoyl]phenyl}amino)benzamide], the EC50 was 102 nM.

As to `CC(C)NC(=O)c1cccc(Nc2ccc(C(=O)/N=C3\NCCC(=O)N3)cc2C(C)(C)C)c1` [compound 98, 3-tert-butyl-N-[(2E)-4-oxo-1,3-diazinan-2-ylidene]-4-({3-[(propan-2-yl)carbamoyl]phenyl}amino)benzamide], the EC50 worked out at 33 nM.

In the case of `O=C1CCN/C(=N\C(=O)c2ccc(Nc3cccc(OCCCC4CCCCC4)c3)c(C3CC3)c2)N1` [compound 97, 4-{[3-(3-cyclohexylpropoxy)phenyl]amino}-3-cyclopropyl-N-[(2E)-4-oxo-1,3-diazinan-2-ylidene]benzamide], the EC50 was found to be 25 nM.

On to `CC1CN1C(=O)c1cccc(Nc2ccc(C(=O)N=C3NCCCN3)cc2C2CC2)c1` (centres unmarked) [compound 162, 3-cyclopropyl-N-(1,3-diazinan-2-ylidene)-4-{[3-(2-methylaziridine-1-carbonyl)phenyl]amino}benzamide], for which the EC50 turned out to be 1370 nM.

For the molecule `CC(C)CCS(=O)(=O)Nc1cccc(Nc2ccc(C(=O)/N=C3\NCCC(=O)N3)cc2C(C)(C)C)c1` [compound 94, 3-tert-butyl-4-{[3-(3-methylbutanesulfonamido)phenyl]amino}-N-[(2E)-4-oxo-1,3-diazinan-2-ylidene]benzamide], the 50% effective concentration (EC50) was 17 nM.

For `Cc1c(NC(=O)CCC(C)C)cccc1Nc1ccc(C(=O)N=C2NCCCN2)cc1C1CC1` [compound 128, 3-cyclopropyl-N-(1,3-diazinan-2-ylidene)-4-{[2-methyl-3-(4-methylpentanamido)phenyl]amino}benzamide], the EC50 was 209 nM.

`Cc1cc(C(=O)N=C2NCCCN2)ccc1Nc1cccc(NC(=O)CCC2CCCCC2)c1` [compound 153, 4-{[3-(3-cyclohexylpropanamido)phenyl]amino}-N-(1,3-diazinan-2-ylidene)-3-methylbenzamide]: the concentration for a half-maximal effect (EC50) stood at 704 nM.

Take `O=C(N=C1NCCCN1)c1ccc(Nc2cccc(C(=O)NC3CCOC3)c2)c(C2CC2)c1` (centres unmarked) [compound 155, 3-cyclopropyl-N-(1,3-diazinan-2-ylidene)-4-({3-[(oxolan-3-yl)carbamoyl]phenyl}amino)benzamide]: the EC50 came out at 949 nM.

Regarding `O=C1CCN/C(=N\C(=O)c2ccc(Nc3cccc(OCC4CCCCO4)c3)c(C3CC3)c2)N1` (centres unmarked) [compound 151, 3-cyclopropyl-4-({3-[(oxan-2-yl)methoxy]phenyl}amino)-N-[(2E)-4-oxo-1,3-diazinan-2-ylidene]benzamide], the EC50 was 525 nM.

Take `O=C1CCN/C(=N\C(=O)c2ccc(Nc3cccc(OCC4CCCOC4)c3)c(C3CC3)c2)N1` (centres unmarked) [compound 134, 3-cyclopropyl-4-({3-[(oxan-3-yl)methoxy]phenyl}amino)-N-[(2E)-4-oxo-1,3-diazinan-2-ylidene]benzamide]: the EC50 worked out at 265 nM.

`O=C(N=C1NCCCN1)c1ccc(Nc2cccc(OCC(F)(F)F)c2)c(C2CC2)c1` [compound 124, 3-cyclopropyl-N-(1,3-diazinan-2-ylidene)-4-{[3-(2,2,2-trifluoroethoxy)phenyl]amino}benzamide]: the EC50 came to 150 nM.

In the case of `O=C(N=C1NCCCN1)c1ccc(Nc2cccc(C(=O)NC3COC3)c2)c(C2CC2)c1` [compound 166, 3-cyclopropyl-N-(1,3-diazinan-2-ylidene)-4-({3-[(oxetan-3-yl)carbamoyl]phenyl}amino)benzamide], the EC50 stood at 2740 nM.

With `CN(C)C(=O)c1cccc(Nc2ccc(C(=O)N=C3NCCCN3)cc2C2CC2)c1` [compound 163, 3-cyclopropyl-N-(1,3-diazinan-2-ylidene)-4-{[3-(dimethylcarbamoyl)phenyl]amino}benzamide], the EC50 was found to be 1470 nM.

Turning to `CC(C)CNC(=O)c1cccc(Nc2ccc(C(=O)N=C3NCCCN3)cc2C2CC2)c1` [compound 131, 3-cyclopropyl-N-(1,3-diazinan-2-ylidene)-4-({3-[(2-methylpropyl)carbamoyl]phenyl}amino)benzamide], the EC50 was 246 nM.

For the molecule `O=C(N=C1NCCCN1)c1ccc(Nc2cccc(OCC(F)F)c2)c(C2CC2)c1` [compound 125, 3-cyclopropyl-N-(1,3-diazinan-2-ylidene)-4-{[3-(2,2-difluoroethoxy)phenyl]amino}benzamide], the EC50 was determined as 151 nM.

Consider `O=C(N=C1NCCCN1)c1ccc(Nc2cccc(C(=O)NCC(F)(F)F)c2)c(C2CC2)c1` [compound 133, 3-cyclopropyl-N-(1,3-diazinan-2-ylidene)-4-({3-[(2,2,2-trifluoroethyl)carbamoyl]phenyl}amino)benzamide], for which the concentration for a half-maximal effect (EC50) was 261 nM.

Consider `CC(NC(=O)c1cccc(Nc2ccc(C(=O)N=C3NCCCN3)cc2C2CC2)c1)C(F)(F)F` (centres unmarked) [compound 109, 3-cyclopropyl-N-(1,3-diazinan-2-ylidene)-4-({3-[(1,1,1-trifluoropropan-2-yl)carbamoyl]phenyl}amino)benzamide], for which the 50% effective concentration (EC50) turned out to be 79 nM.

Consider `CC(C)OCCOc1cccc(Nc2ccc(C(=O)N=C3NCCCN3)cc2C2CC2)c1` [compound 139, 3-cyclopropyl-N-(1,3-diazinan-2-ylidene)-4-({3-[2-(propan-2-yloxy)ethoxy]phenyl}amino)benzamide], for which the EC50 stood at 340 nM.

On to `O=C(N=C1NCCCN1)c1ccc(Nc2cccc(C(=O)N3CC4CC4C3)c2)c(C2CC2)c1` (centres unmarked) [compound 136, 4-[(3-{3-azabicyclo[3.1.0]hexane-3-carbonyl}phenyl)amino]-3-cyclopropyl-N-(1,3-diazinan-2-ylidene)benzamide], for which the EC50 is 298 nM.
